Results as given in patent US11046714B2, “2,2-difluorodioxolo A2A receptor antagonists” (Merck Sharp & Dohme Corp., priority 2013, dated 2021).

Target: human A2A receptor (Homo sapiens (Human), UniProt P29274)
Assay: competition binding assay using Scintillation Proximity technology
Details: membranes from CHO-K1 cells expressing the human A2a receptor; 2.0 nM tritiated compound; Cheng-Prusoff
Method in brief: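 Membranes (1.0 μg) from CHO-K1 cells expressing human A2A were treated with adenosine deaminase, then incubated 1 h at room temperature with compound (3000–0.15 nM) and 2.0 nM tritiated SCH-type ligand on WGA SPA beads in PBS plus 10 mM MgCl2. Nonspecific binding was defined with 1 μM CGS 15943. Ki was derived from EC50 via Cheng-Prusoff.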

Chain of human A2A receptor (P29274 whole entry): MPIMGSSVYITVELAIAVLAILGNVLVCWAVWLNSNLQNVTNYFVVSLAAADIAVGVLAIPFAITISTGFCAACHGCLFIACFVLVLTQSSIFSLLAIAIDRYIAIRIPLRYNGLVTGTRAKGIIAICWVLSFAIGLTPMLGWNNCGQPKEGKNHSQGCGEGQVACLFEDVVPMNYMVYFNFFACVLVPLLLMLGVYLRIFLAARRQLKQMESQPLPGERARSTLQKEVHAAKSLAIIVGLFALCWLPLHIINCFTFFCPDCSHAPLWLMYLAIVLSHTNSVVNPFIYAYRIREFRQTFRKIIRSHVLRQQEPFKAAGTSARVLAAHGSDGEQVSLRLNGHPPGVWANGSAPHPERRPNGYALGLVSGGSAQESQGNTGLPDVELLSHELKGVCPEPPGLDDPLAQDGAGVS

SMILES	Ki [nM]
C[C@@H]1CN(c2ccc(F)cc2)CCN1Cc1nc2c3ccc4c(c3nc(N)n2n1)OC(F)(F)O4 [Example 106, 2,2-difluoro-8-{[(2R)-4-(4-fluorophenyl)-2-methylpiperazin-1-yl]methyl}[1,3]dioxolo[4,5-h][1,2,4] triazolo[1,5-c]quinazolin-5-amine]	2.1
Cc1ncc(N2CCN(Cc3nc4c5ccc6c(c5nc(N)n4n3)OC(F)(F)O6)[C@H](C)C2)s1 [Example 107, 2,2-difluoro-8-{[(2R)-2-methyl-4-(2-methyl-1,3-thiazol-5-yl)piperazin-1-yl]methyl}[1,3]dioxolo[4,5-h][1,2,4] triazolo[1,5-c]quinazolin-5-amine]	4
C[C@@H]1CN(c2nsnc2Cl)CCN1Cc1nc2c3ccc4c(c3nc(N)n2n1)OC(F)(F)O4 [Example 108, 8-{[(2R)-4-(4-chloro-1,2,5-thiadiazol-3-yl)-2-methylpiperazin-1-yl]methyl}-2,2-difluoro[1,3] dioxolo[4,5-h][1,2,4]triazolo[1,5-c]quinazolin-5-amine]	7.5
Nc1nc2c3c(ccc2c2nc(CN4CC(F)(F)C4)nn12)OC(F)(F)O3 [Example 109, 8-((3,3-difluoroazetidin-1-yl)methyl)-2,2-difluoro-[1,3]dioxolo[4,5-h][1,2,4]triazolo[1,5-c]quinazolin-5-amine]	5.9
CC1(C)CN(Cc2nc3c4ccc5c(c4nc(N)n3n2)OC(F)(F)O5)C1 [Example 110, 8-[(3,3-dimethylazetidin-1-yl)methyl]-2,2-difluoro[1,3]dioxolo[4,5-h][1,2,4]triazolo[1,5-c]quinazolin-5-amine]	2.9
CC1(F)CN(Cc2nc3c4ccc5c(c4nc(N)n3n2)OC(F)(F)O5)C1 [Example 111, 2,2-difluoro-8-[(3-fluoro-3-methylazetidin-1-yl)methyl][1,3] dioxolo[4,5-h][1,2,4]triazolo[1,5-c]quinazolin-5-amine]	1.4
CCC1(F)CN(Cc2nc3c4ccc5c(c4nc(N)n3n2)OC(F)(F)O5)C1 [Example 112, 8-[(3-ethyl-3-fluoroazetidin-1-yl)methyl]-2,2-difluoro[1,3] dioxolo[4,5-h][1,2,4]triazolo[1,5-c]quinazolin-5-amine]	2
Nc1nc2c3c(ccc2c2nc(CN4CC(O)(C(F)(F)F)C4)nn12)OC(F)(F)O3 [Example 113, 11-[(5-amino-2,2-difluoro[1,3]dioxolo [4,5-h][1,2,4]triazolo[1,5-c]quinazolin-8-yl)methyl]-3-(trifluoromethyl) azetidin-3-ol]	2.8
Nc1nc2c3c(ccc2c2nc(CN4CC(F)(C(F)(F)F)C4)nn12)OC(F)(F)O3 [Example 114, 2,2-difluoro-8-{[3-fluoro-3-(trifluoromethyl)azetidin-1-yl]methyl} [1,3]dioxolo[4,5-h][1,2,4]triazolo[1,5-c]quinazolin-5-amine]	1.4
Nc1nc2c3c(ccc2c2nc(CN4C[C@H](F)[C@@H](F)C4)nn12)OC(F)(F)O3 [Example 115, 8-{[(3S,4S)-3,4-difluoropyrrolidin-1-yl]methyl}-2,2-difluoro[1,3] dioxolo[4,5-h][1,2,4]triazolo[1,5-c]quinazolin-5-amine]	4.4
Nc1nc2c3c(ccc2c2nc(CN4CCC(F)(F)C4)nn12)OC(F)(F)O3 [Example 116, 8-[(3,3-difluoropyrrolidin-1-yl)methyl]-2,2-difluoro[1,3]dioxolo[4,5-h][1,2,4] triazolo[1,5-c]quinazolin-5-amine]	1.8
Nc1nc2c3c(ccc2c2nc(CN4CCC(Oc5ccc(F)cc5)CC4)nn12)OC(F)(F)O3 [Example 117, 2,2-difluoro-8-{[4-(4-fluorophenoxy)piperidin-1-yl]methyl}[1,3]dioxolo [4,5-h][1,2,4]triazolo[1,5-c]quinazolin-5-amine]	4.9
Nc1nc2c3c(ccc2c2nc(CN4CCCC(F)(F)C4)nn12)OC(F)(F)O3 [Example 118, 8-[(3,3-difluoropiperidin-1-yl)methyl]-2,2-difluoro[1,3]dioxolo[4,5-h][1,2,4] triazolo[1,5-c]quinazolin-5-amine]	4.2
Nc1nc2c3c(ccc2c2nc(CN4CCC(F)(F)CC4)nn12)OC(F)(F)O3 [Example 119, 8-[(4,4-difluoropiperidin-1-yl)methyl]-2,2-difluoro[1,3]dioxolo[4,5-h][1,2,4] triazolo[1,5-c]quinazolin-5-amine]	1.7
Nc1nc2c3c(ccc2c2nc(CN4Cc5ccc(F)cc5C4)nn12)OC(F)(F)O3 [Example 120, 2,2-difluoro-8-[(5-fluoro-1,3-dihydro-2H-isoindol-2-yl)methyl][1,3] dioxolo[4,5-h][1,2,4]triazolo[1,5-c]quinazolin-5-amine]	2.7
Nc1nc2c3c(ccc2c2nc(CN4Cc5cnc(C(F)(F)F)nc5C4)nn12)OC(F)(F)O3 [Example 121, 2,2-difluoro-8-{[2-(trifluoromethyl)-5,7-dihydro-6H-pyrrolo[3,4-d]pyrimidin-6-yl]methyl}[1,3]dioxolo [4,5-h][1,2,4]triazolo[1,5-c]quinazolin-5-amine]	16

SMILES	Ki [nM]
CCc1nnc2n1CCN(Cc1nc3c4ccc5c(c4nc(N)n3n1)OC(F)(F)O5)C2 [Example 122, 8-[(3-ethyl-5,6-dihydro[1,2,4]triazolo [4,3-a]pyrazin-7(8H)-yl)methyl]-2,2-difluoro[1,3]dioxolo[4,5-h][1,2,4] triazolo[1,5-c]quinazolin-5-amine]	110
Nc1nc2c3c(ccc2c2nc(CN4Cc5ccc(C(F)(F)F)cc5C4)nn12)OC(F)(F)O3 [Example 123, 2,2-difluoro-8-{[5-(trifluoromethyl)-1,3-dihydro-2H-isoindol-2-yl]methyl} [1,3]dioxolo[4,5-h][1,2,4]triazolo[1,5-c]quinazolin-5-amine]	4.9
Nc1nc2c3c(ccc2c2nc(CNCc4ccc(C(F)(F)F)cc4)nn12)OC(F)(F)O3 [Example 124, 2,2-difluoro-8-({[4-(trifluoromethyl)benzyl]amino}methyl)[1,3]dioxolo [4,5-h][1,2,4]triazolo[1,5-c]quinazolin-5-amine]	1.6
Nc1nc2c3c(ccc2c2nc(CNC4(C(F)(F)F)CCC4)nn12)OC(F)(F)O3 [Example 125, 2,2-difluoro-8-({[1-(trifluoromethyl)cyclobutyl]amino}methyl)[1,3]dioxolo [4,5-h][1,2,4]triazolo[1,5-c]quinazolin-5-amine]	1.1
CN(C)Cc1nc2c3ccc4c(c3nc(N)n2n1)OC(F)(F)O4 [Example 126, 8-[(dimethylamino)methyl]-2,2-difluoro[1,3]dioxolo[4,5-h][1,2,4] triazolo[1,5-c]quinazolin-5-amine]	29
Cc1csc(CN(Cc2nc3c4ccc5c(c4nc(N)n3n2)OC(F)(F)O5)CC2CC2)n1 [Example 127, 8-({(cyclopropylmethyl)[(4-methyl-1,3-thiazol-2-yl)methyl]amino}methyl)-2,2-difluoro[1,3]dioxolo[4,5-h][1,2,4] triazolo[1,5-c]quinazolin-5-amine]	1.4
Nc1nc2c3c(ccc2c2nc(Cn4cccn4)nn12)OC(F)(F)O3 [Example 128, 8-((1H-pyrazol-1-yl)methyl)-2,2-difluoro-[1,3]dioxolo[4,5-h][1,2,4]triazolo[1,5-c]quinazolin-5-amine]	2.5
Cc1cc(C)n(Cc2nc3c4ccc5c(c4nc(N)n3n2)OC(F)(F)O5)n1 [Example 129, 8-[(3,5-dimethyl-1H-pyrazol-1-yl)methyl]-2,2-difluoro[1,3]dioxolo[4,5-h][1,2,4]triazolo[1,5-c]quinazolin-5-amine]	1
Nc1nc2c3c(ccc2c2nc(Cn4nc(C(F)(F)F)cc4C(F)(F)F)nn12)OC(F)(F)O3 [Example 130, 8-{[3,5-bis(trifluoromethyl)-1H-pyrazol-1-yl]methyl}-2,2-difluoro [1,3]dioxolo[4,5-h][1,2,4]triazolo [1,5-c]quinazolin-5-amine]	3.9
Nc1nc2c3c(ccc2c2nc(CCCN4Cc5cccnc5C4)nn12)OC(F)(F)O3 [Example 137, 8-(3-(5H-pyrrolo[3,4-b]pyridin-6(7H)-yl)propyl)-2,2-difluoro-[1,3]dioxolo[4,5-h][1,2,4]triazolo[1,5-c]quinazolin-5-amine]	1.9
Nc1nc2c3c(ccc2c2nc([C@@H]4CCCN(CC(F)(F)F)C4)nn12)OC(F)(F)O3 [Example 138, (R)-2,2-difluoro-8-(1-(2,2,2-trifluoroethyl)piperidin-3-yl)-[1,3]dioxolo[4,5-h][1,2,4]triazolo[1,5-c]quinazolin-5-amine]	1
Nc1nc2c3c(ccc2c2nc([C@@H]4CCCN(CC(F)F)C4)nn12)OC(F)(F)O3 [Example 139, (R)-8-(1-(2,2-difluoroethyl)piperidin-3-yl)-2,2-difluoro-[1,3]dioxolo[4,5-h][1,2,4]triazolo[1,5-c]quinazolin-5-amine]	1.5
COC(=O)C(Cc1nc2c3ccc4c(c3nc(N)n2n1)OC(F)(F)O4)C(=O)OC [Example 148, dimethyl [(5-amino-2,2-difluoro[1,3]dioxolo[4,5-h][1,2,4]triazolo[1,5-c]quinazolin-8-yl)methyl]propanedioate]	2
Nc1nc2c3c(ccc2c2nc(CC(CO)CO)nn12)OC(F)(F)O3 [Example 149, 2-[(5-amino-2,2-difluoro[1,3]dioxolo[4,5-h][1,2,4]triazolo[1,5-c]quinazolin-8-yl)methyl]propane-1,3-diol]	2.7
Nc1nc2c3c(ccc2c2nc(CC(CCl)CCl)nn12)OC(F)(F)O3 [Example 150, 8-[3-chloro-2-(chloromethyl)propyl]-2,2-difluoro[1,3]dioxolo[4,5-h][1,2,4]triiazolo[1,5-c]quinazolin-5-amine]	2.3
Nc1nc2c3c(ccc2c2nc(CC4CN(C5CCC5)C4)nn12)OC(F)(F)O3 [Example 151, 8-[(1-cyclobutylazetidin-3-yl)methyl]-2,2-difluoro[1,3]dioxolo[4,5-h][1,2,4]triazolo[1,5-c]quinazolin-5-amine]	65
